From US7605163B2, “Benzoyl-piperazine derivatives” (Hoffmann-La Roche Inc., priority 2003, dated 2009)

target: T1, mGlyT-1b (Mus musculus, UniProt P28571); assay: Glycine Uptake Inhibition Assay (mGlyT-1b); assay type: cell-based; details: [3H]-glycine uptake inhibition at GlyT-1, Flp-in-CHO cells transfected with mGlyT-1b cDNA
T1 construct: host or cells: Flp-in-CHO cells
T1 sequence (P28571 1-651 isoform P28571-2): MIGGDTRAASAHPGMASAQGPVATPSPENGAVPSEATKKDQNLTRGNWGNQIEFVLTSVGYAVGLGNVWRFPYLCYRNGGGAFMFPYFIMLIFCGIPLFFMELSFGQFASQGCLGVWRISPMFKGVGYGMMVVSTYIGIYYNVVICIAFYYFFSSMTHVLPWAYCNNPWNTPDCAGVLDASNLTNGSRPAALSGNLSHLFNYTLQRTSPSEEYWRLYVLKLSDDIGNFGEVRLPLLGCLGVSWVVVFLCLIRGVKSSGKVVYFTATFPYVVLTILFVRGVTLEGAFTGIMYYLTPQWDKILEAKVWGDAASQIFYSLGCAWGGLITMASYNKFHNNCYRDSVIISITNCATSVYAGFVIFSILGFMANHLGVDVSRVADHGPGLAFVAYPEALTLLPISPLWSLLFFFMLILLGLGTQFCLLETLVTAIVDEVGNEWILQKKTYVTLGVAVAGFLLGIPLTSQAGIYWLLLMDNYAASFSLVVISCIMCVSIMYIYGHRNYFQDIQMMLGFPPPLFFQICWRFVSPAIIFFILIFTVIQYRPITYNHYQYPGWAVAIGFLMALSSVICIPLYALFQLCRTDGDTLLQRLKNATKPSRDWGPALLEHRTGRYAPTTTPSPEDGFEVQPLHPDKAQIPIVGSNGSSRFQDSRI
Protocol: DMEM complete medium: Nutrient mixture F-12 (Gibco Life-technologies), fetal bovine serum (FBS) 5%, (Gibco life technologies), Penicillin/Streptomycin 1% (Gibco life technologies), Hygromycin 0.6 mg/ml (Gibco life technologies), Glutamine 1 mM Gibco life technologies)
Uptake buffer (UB): 150 mM NaCl, 10 mM Hepes-Tris, pH 7.4, 1 mM CaCl2, 2.5 mM KCl, 2.5 mM MgSO4, 10 mM (+) D-glucose. Flp-in™-CHO (Invitrogen Cat n^o R758-07) cells stably transfected with mGlyT1b cDNA.
Glycine Uptake Inhibition Assay (mGlyT-1b)
On day 1 mammalian cells, (Flp-in™-CHO), transfected with mGlyT-1b cDNA, were plated at the density of 40,000 cells/well in complete F-12 medium, without hygromycin in 96-well culture plates. On day 2, the medium was aspirated, and the cells were washed twice with uptake buffer (UB). The cells were then incubated for 20 min at 22° C. with either (i) no potential competitor, (ii) 10 mM non-radioactive glycine, (iii) a concentration of a potential inhibitor. A range of concentrations of the potential inhibitor was used to generate data for calculating the concentration of inhibitor resulting in 50% of the effect (e.g. IC50, the concentration of the competitor inhibiting glycine uptake of 50%).
A solution was then immediately added containing [^3H]-glycine 60 nM (11-16 Ci/mmol) and 25 μM non-radioactive glycine. The plates were incubated with gentle shaking, and the reaction was stopped by aspiration of the mixture and washing (three times) with ice-cold UB. The cells were lysed with scintillation liquid, shaken 3 hours and the radioactivity in the cells counted using a scintillation counter.

| IC50 [nM] | Compound |
| --- | --- |
| 31 | CS(=O)(=O)c1ccc(OCC2CC2)c(C(=O)N2CCN(c3cc(F)c(C#N)c(F)c3)CC2)c1 [compound 170] |
| 19 | CS(=O)(=O)c1ccc(OC2CCCC2)c(C(=O)N2CCN(c3cc(F)c(C#N)c(F)c3)CC2)c1 [compound 172] |
| 36 | CS(=O)(=O)c1ccc(OCC(F)(F)C(F)(F)F)c(C(=O)N2CCN(c3ccc(C#N)c(F)c3)CC2)c1 [compound 180] |
| 30 | CS(=O)(=O)c1ccc(OCC(F)(F)C(F)(F)F)c(C(=O)N2CCN(c3ccc(C(F)(F)F)cc3)CC2)c1 [compound 182] |
| 22 | CS(=O)(=O)c1ccc(OCC(F)(F)C(F)(F)F)c(C(=O)N2CCN(c3ccc(C#N)c(F)c3F)CC2)c1 [compound 184] |
| 48 | CS(=O)(=O)c1ccc(OCC(F)(F)C(F)(F)F)c(C(=O)N2CCN(c3c(F)cc(C#N)cc3F)CC2)c1 [compound 186] |
| 47 | CS(=O)(=O)c1ccc(OC(CF)CF)c(C(=O)N2CCN(c3ccc(C(F)(F)F)cc3C#N)CC2)c1 [compound 194] |
| 41 | CC(C)(C)Oc1ccc(S(C)(=O)=O)cc1C(=O)N1CCN(c2ccc(C#N)c(F)c2F)CC1 [compound 196] |
| 24 | CC(C)Oc1ccc(S(C)(=O)=O)cc1C(=O)N1CCN(c2ccc(Cl)cc2C#N)CC1 [compound 202] |
| 41 | CS(=O)(=O)c1ccc(OCC(F)(F)C(F)F)c(C(=O)N2CCN(c3ccc(C#N)c(F)c3)CC2)c1 [compound 209] |
| 39 | CS(=O)(=O)c1ccc(OCC(F)(F)C(F)F)c(C(=O)N2CCN(c3ccc(C#N)cc3F)CC2)c1 [compound 210] |
| 43 | CS(=O)(=O)c1ccc(OCC(F)(F)C(F)F)c(C(=O)N2CCN(c3ccc(C(F)(F)F)cc3)CC2)c1 [compound 211] |
| 29 | CS(=O)(=O)c1ccc(OCC(F)(F)C(F)F)c(C(=O)N2CCN(c3ccc(C(F)(F)F)cc3F)CC2)c1 [compound 212] |
| 21 | CS(=O)(=O)c1ccc(OCC(F)(F)C(F)F)c(C(=O)N2CCN(c3ccc(C#N)c(F)c3F)CC2)c1 [compound 213] |
| 49 | CS(=O)(=O)c1ccc(OCC(F)(F)C(F)F)c(C(=O)N2CCN(c3c(F)cc(C#N)cc3F)CC2)c1 [compound 215] |
| 47 | CS(=O)(=O)c1ccc(OCC2CC2)c(C(=O)N2CCN(c3ccc(Cl)cc3C#N)CC2)c1 [compound 228] |
| 43 | CC(C)(C)Oc1ccc(S(C)(=O)=O)cc1C(=O)N1CCN(c2cc(F)c(C#N)cc2F)CC1 [compound 234] |
| 42 | CC(C)(C)Oc1ccc(S(C)(=O)=O)cc1C(=O)N1CCN(c2ccc(C#N)cc2F)CC1 [compound 244] |
| 30 | CC(C)(C)Oc1ccc(S(C)(=O)=O)cc1C(=O)N1CCN(c2ccc(C(F)(F)F)cc2F)CC1 [compound 247] |

| IC50 [nM] | Compound |
| --- | --- |
| 32 | CC(C)(C)Oc1ccc(S(C)(=O)=O)cc1C(=O)N1CCN(c2cc(F)c(S(C)(=O)=O)cc2F)CC1 [compound 249] |
| 61 | CC(C)(C)Oc1ccc(S(C)(=O)=O)cc1C(=O)N1CCN(c2c(F)cc(S(C)(=O)=O)cc2F)CC1 [compound 250] |
| 32 | CS(=O)(=O)c1ccc(OCC(F)(F)F)c(C(=O)N2CCN(c3ccc(Cl)c(Cl)c3)CC2)c1 [compound 251] |
| 21 | CC(=O)c1ccc(N2CCN(C(=O)c3cc(S(C)(=O)=O)ccc3OC3CCCCC3)CC2)c(F)c1 [compound 281] |
| 27 | CS(=O)(=O)c1ccc(OC2CCCCC2)c(C(=O)N2CCN(c3ccc(C#N)cc3)CC2)c1 [compound 282] |
| 8 | CS(=O)(=O)c1ccc(OC2CCCCC2)c(C(=O)N2CCN(c3ccc(C#N)cc3F)CC2)c1 [compound 283] |
| 10 | CS(=O)(=O)c1ccc(OC2CCCCC2)c(C(=O)N2CCN(c3ccc(C#N)c(F)c3)CC2)c1 [compound 284] |
| 42 | CS(=O)(=O)c1ccc(OC2CCCCC2)c(C(=O)N2CCN(c3ccc(C(F)(F)F)cc3)CC2)c1 [compound 285] |
| 33 | CS(=O)(=O)c1ccc(OC2CCCCC2)c(C(=O)N2CCN(c3ccc(C(F)(F)F)c(F)c3)CC2)c1 [compound 287] |
| 25 | CS(=O)(=O)c1ccc(N2CCN(C(=O)c3cc(S(C)(=O)=O)ccc3OC3CCCCC3)CC2)c(F)c1 [compound 288] |
| 17 | CC(C)(C)COc1ccc(S(C)(=O)=O)cc1C(=O)N1CCN(c2ccc(C#N)cc2)CC1 [compound 290] |
| 13 | CC(C)(C)COc1ccc(S(C)(=O)=O)cc1C(=O)N1CCN(c2ccc(C#N)cc2F)CC1 [compound 291] |
| 21 | CC(C)(C)COc1ccc(S(C)(=O)=O)cc1C(=O)N1CCN(c2ccc(C#N)c(F)c2)CC1 [compound 292] |
| 34 | CC(C)(C)COc1ccc(S(C)(=O)=O)cc1C(=O)N1CCN(c2ccc(C(F)(F)F)cc2)CC1 [compound 293] |
| 37 | CC(C)(C)COc1ccc(S(C)(=O)=O)cc1C(=O)N1CCN(c2ccc(C(F)(F)F)cc2F)CC1 [compound 294] |
| 16 | CC(C)(C)COc1ccc(S(C)(=O)=O)cc1C(=O)N1CCN(c2ccc(C(F)(F)F)c(F)c2)CC1 [compound 295] |
| 43 | CC(C)(C)COc1ccc(S(C)(=O)=O)cc1C(=O)N1CCN(c2ccc(S(C)(=O)=O)cc2F)CC1 [compound 296] |
| 30 | CC(Oc1ccc(S(C)(=O)=O)cc1C(=O)N1CCN(c2ccc(C(F)(F)F)cc2)CC1)C(F)(F)F (centres unmarked) [compound 301] |
| 45 | CC(=O)c1ccc(N2CCN(C(=O)c3cc(S(C)(=O)=O)ccc3OC3CCC3)CC2)c(F)c1 [compound 311] |

| IC50 [nM] | Compound |
| --- | --- |
| 18 | CS(=O)(=O)c1ccc(OC2CCC2)c(C(=O)N2CCN(c3ccc(C#N)cc3F)CC2)c1 [compound 313] |
| 41 | CS(=O)(=O)c1ccc(OC2CCC2)c(C(=O)N2CCN(c3ccc(C(F)(F)F)c(F)c3)CC2)c1 [compound 317] |
| 8 | CC(C)Oc1ccc(S(C)(=O)=O)cc1C(=O)N1CCN(c2ccc(C(F)(F)F)cc2C#N)CC1 [compound 363] |
| 36 | CC(=O)c1ccc(N2CCN(C(=O)c3cc(S(C)(=O)=O)ccc3OC(C)C)CC2)cc1F [compound 367] |
| 32 | CC(=O)c1ccc(N2CCN(C(=O)c3cc(S(C)(=O)=O)ccc3OCC3CC3)CC2)cc1F [compound 369] |
| 41 | CC(C)COc1ccc(S(C)(=O)=O)cc1C(=O)N1CCN(c2ccc(S(C)(=O)=O)c(F)c2)CC1 [compound 371] |
| 6 | CC(=O)c1ccc(N2CCN(C(=O)c3cc(S(C)(=O)=O)ccc3OCC(C)C)CC2)cc1F [compound 372] |
| 35 | CS(=O)(=O)c1ccc(OC2CCCC2)c(C(=O)N2CCN(c3ccc(C(F)(F)F)cc3C#N)CC2)c1 [compound 373] |
| 35 | CC(C)COc1ccc(S(C)(=O)=O)cc1C(=O)N1CCN(c2ccc(C(F)(F)F)cc2C#N)CC1 [compound 375] |
| 32 | CCS(=O)(=O)c1ccc(OC(C)C)c(C(=O)N2CCN(c3ccc(C(F)(F)F)cc3F)CC2)c1 [compound 393] |
| 23 | CC(C)Oc1ccc(S(C)(=O)=O)cc1C(=O)N1CCN(c2ccc(C(F)F)cc2F)CC1 [compound 400] |
| 45 | CS(=O)(=O)c1ccc(OC2CCCC2)c(C(=O)N2CCN(c3ccc(C#N)cn3)CC2)c1 [compound 411] |
| 33 | CS(=O)(=O)c1ccc(OC2CCCC2)c(C(=O)N2CCN(c3ccc(C(F)(F)F)cn3)CC2)c1 [compound 412] |
| 30 | CS(=O)(=O)c1ccc(OC2CCCC2)c(C(=O)N2CCN(c3ncc(C(F)(F)F)cc3Cl)CC2)c1 [compound 413] |
| 46 | CC(C)Oc1ccc(S(C)(=O)=O)cc1C(=O)N1CCN(c2ncc(C(F)(F)F)cc2Cl)CC1 [compound 417] |
| 37 | CS(=O)(=O)c1ccc(OC2CCCC2)c(C(=O)N2CCN(c3ccc(C(F)(F)F)nc3)CC2)c1 [compound 430] |
| 26 | CC(C)Oc1ccc(S(C)(=O)=O)cc1C(=O)N1CCN(c2ncc(C(F)(F)F)cc2F)CC1 [compound 437] |
| 21 | CS(=O)(=O)c1ccc(OC2CCCC2)c(C(=O)N2CCN(c3ncc(C(F)(F)F)cc3F)CC2)c1 [compound 439] |
